In article PMC9005681, “Use of AD Informer Set compounds to explore validity of novel targets in Alzheimer's disease pathology” (Alzheimer's & Dementia : Translational Research & Clinical …, 2022):

Columns and labels:
Assay in all cases: PDSP GPCR panel primary binding assays at 10 μM
Details in all cases: primary assay
[1] = biological target: T1, cloned human or rodent CNS receptors, channels, and transporters (PDSP panel) (Homo sapiens, UniProt P35367)
T1 construct: expressed in transfected cells
T1 sequence (P35367 whole entry): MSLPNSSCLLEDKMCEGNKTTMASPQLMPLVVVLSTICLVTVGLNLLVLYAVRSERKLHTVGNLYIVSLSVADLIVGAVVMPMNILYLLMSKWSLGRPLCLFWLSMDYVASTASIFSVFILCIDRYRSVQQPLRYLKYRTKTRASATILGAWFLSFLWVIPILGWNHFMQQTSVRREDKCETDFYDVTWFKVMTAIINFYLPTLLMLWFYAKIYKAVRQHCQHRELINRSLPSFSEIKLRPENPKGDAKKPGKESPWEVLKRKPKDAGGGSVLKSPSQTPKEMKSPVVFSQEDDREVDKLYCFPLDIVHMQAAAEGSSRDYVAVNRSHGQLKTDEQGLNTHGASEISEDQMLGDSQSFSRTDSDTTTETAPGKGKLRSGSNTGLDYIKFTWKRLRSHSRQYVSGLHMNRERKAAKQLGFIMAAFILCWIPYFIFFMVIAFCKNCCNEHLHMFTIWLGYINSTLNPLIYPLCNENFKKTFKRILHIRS
Procedure, shortened: (§1)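 Competition binding with radiolabeled standard ligands, single 10 μM concentration, four replicates. Targets showing over 50% displacement were followed up with 11-point titrations in triplicate.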

[2] = biological target: T2, cloned human or rodent CNS receptors, channels, and transporters (PDSP panel) (Homo sapiens, UniProt P20309)
T2 construct: expressed in transfected cells
T2 sequence (P20309 whole entry): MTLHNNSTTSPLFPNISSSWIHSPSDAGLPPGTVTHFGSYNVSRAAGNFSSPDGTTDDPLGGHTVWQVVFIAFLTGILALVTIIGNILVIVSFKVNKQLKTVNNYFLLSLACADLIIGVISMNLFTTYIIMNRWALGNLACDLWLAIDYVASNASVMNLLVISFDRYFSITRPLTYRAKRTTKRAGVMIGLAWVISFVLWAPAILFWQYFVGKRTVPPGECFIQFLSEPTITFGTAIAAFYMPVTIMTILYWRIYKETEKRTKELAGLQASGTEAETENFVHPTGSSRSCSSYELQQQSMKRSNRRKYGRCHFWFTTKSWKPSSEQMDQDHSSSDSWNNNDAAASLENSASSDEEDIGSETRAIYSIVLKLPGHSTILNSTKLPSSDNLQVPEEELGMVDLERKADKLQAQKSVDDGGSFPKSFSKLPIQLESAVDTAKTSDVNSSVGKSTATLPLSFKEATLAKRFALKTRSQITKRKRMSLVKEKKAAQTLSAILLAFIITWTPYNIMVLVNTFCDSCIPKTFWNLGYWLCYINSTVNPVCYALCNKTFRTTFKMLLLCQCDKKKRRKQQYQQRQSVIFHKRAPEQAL
Procedure, shortened: as §1

[3] = biological target: T3, cloned human or rodent CNS receptors, channels, and transporters (PDSP panel) (Homo sapiens, UniProt P28222)
T3 construct: expressed in transfected cells
T3 sequence (P28222 whole entry): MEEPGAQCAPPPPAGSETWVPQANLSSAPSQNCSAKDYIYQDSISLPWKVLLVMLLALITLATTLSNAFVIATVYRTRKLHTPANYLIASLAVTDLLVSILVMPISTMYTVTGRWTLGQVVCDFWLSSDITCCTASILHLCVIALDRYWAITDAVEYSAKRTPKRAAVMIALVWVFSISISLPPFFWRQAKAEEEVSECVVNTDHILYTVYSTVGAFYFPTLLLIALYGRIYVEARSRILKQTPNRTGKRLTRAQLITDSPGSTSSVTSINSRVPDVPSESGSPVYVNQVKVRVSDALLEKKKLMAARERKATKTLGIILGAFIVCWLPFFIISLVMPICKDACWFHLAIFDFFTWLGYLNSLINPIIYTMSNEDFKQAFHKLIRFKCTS
Procedure, shortened: as §1

[4] = biological target: T4, cloned human or rodent CNS receptors, channels, and transporters (PDSP panel) (Homo sapiens, UniProt Q01959)
T4 construct: expressed in transfected cells
T4 sequence (Q01959 whole entry): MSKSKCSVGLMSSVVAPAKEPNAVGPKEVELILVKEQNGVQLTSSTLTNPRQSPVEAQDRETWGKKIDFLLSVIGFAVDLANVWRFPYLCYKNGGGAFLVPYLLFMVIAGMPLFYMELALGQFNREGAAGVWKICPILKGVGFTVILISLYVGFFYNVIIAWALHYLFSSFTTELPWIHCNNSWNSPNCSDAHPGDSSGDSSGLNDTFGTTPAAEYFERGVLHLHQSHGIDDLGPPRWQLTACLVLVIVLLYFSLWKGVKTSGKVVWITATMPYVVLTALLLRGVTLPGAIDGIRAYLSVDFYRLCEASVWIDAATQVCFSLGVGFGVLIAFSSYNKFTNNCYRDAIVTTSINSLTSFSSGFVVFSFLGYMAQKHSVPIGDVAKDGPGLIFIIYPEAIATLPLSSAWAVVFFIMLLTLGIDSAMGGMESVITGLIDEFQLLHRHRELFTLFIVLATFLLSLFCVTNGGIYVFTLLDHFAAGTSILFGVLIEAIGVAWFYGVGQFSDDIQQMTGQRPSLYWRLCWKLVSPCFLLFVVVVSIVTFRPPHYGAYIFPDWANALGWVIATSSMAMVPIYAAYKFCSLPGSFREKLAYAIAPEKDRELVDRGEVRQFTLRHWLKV
Procedure, shortened: as §1

[5] = biological target: T5, cloned human or rodent CNS receptors, channels, and transporters (PDSP panel) (Homo sapiens, UniProt P11229)
T5 construct: expressed in transfected cells
T5 sequence (P11229 1-460): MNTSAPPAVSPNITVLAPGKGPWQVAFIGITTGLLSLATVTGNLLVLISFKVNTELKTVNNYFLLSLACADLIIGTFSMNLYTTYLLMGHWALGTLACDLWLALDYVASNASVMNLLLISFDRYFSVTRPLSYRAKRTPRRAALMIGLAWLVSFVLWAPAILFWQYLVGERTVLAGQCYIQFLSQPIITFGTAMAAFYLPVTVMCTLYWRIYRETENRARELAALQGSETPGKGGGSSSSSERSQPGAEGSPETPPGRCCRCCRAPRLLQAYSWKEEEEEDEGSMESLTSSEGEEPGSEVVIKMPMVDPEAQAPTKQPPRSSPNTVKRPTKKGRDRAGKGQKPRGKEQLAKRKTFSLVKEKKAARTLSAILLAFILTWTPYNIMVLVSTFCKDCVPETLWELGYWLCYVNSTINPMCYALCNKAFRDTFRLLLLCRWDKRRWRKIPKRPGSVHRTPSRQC
Procedure, shortened: as §1

[6] = biological target: T6, cloned human or rodent CNS receptors, channels, and transporters (PDSP panel) (Homo sapiens, UniProt P46098)
T6 construct: expressed in transfected cells
T6 sequence (P46098 24-478): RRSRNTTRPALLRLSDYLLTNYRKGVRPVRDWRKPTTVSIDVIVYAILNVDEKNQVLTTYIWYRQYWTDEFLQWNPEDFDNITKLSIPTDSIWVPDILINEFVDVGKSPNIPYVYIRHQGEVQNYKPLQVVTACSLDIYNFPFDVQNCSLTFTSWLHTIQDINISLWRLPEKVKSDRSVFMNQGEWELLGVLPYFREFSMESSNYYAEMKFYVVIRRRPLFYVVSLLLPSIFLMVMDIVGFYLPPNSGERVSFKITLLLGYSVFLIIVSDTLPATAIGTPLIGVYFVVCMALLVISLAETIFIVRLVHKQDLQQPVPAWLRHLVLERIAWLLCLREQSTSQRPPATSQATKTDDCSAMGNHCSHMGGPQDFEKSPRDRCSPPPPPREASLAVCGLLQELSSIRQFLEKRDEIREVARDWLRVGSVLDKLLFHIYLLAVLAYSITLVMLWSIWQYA
Procedure, shortened: as §1

[7] = biological target: T7, cloned human or rodent CNS receptors, channels, and transporters (PDSP panel) (Homo sapiens, UniProt P34969)
T7 construct: expressed in transfected cells
T7 sequence (P34969 whole entry): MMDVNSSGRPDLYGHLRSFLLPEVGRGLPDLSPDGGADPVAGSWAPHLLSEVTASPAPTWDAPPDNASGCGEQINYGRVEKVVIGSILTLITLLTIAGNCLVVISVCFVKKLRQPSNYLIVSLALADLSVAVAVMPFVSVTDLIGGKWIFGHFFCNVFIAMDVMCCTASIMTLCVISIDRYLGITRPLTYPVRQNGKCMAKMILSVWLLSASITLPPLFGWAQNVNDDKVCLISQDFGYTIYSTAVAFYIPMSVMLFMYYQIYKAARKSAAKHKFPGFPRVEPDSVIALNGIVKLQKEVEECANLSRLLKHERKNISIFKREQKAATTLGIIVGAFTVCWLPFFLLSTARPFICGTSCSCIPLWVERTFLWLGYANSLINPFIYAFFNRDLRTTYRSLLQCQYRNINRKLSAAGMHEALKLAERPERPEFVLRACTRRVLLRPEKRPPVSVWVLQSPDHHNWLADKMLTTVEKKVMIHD
Procedure, shortened: as §1

[8] = biological target: T8, cloned human or rodent CNS receptors, channels, and transporters (PDSP panel) (Homo sapiens, UniProt P08908)
T8 construct: expressed in transfected cells
T8 sequence (P08908 1-422): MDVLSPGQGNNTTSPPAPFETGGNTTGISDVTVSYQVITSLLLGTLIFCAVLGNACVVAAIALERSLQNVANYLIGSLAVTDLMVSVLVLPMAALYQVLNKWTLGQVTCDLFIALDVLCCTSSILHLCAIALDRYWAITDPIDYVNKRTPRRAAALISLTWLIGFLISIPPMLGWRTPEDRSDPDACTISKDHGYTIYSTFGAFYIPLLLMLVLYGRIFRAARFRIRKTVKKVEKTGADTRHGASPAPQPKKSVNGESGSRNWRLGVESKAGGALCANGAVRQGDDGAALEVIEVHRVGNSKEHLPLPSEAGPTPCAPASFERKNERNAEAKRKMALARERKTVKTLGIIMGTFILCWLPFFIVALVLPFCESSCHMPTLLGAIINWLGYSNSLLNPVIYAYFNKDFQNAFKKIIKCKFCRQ
Procedure, shortened: as §1

[9] = biological target: T9, cloned human or rodent CNS receptors, channels, and transporters (PDSP panel) (Homo sapiens, UniProt P25021)
T9 construct: expressed in transfected cells
T9 sequence (P25021 whole entry): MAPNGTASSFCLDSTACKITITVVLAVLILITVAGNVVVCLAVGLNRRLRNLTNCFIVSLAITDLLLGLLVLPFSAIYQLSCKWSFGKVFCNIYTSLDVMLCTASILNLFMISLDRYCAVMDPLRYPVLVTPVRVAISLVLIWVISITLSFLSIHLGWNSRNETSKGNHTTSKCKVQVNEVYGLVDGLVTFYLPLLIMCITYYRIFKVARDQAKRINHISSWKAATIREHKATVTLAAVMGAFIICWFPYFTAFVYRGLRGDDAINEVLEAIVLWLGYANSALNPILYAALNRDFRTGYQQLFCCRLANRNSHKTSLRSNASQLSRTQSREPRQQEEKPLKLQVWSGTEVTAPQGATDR
Procedure, shortened: as §1

## Cl.NC(=O)c1cnc(N[C@@H]2CCCC[C@@H]2N)nc1Nc1cccc(-n2nccn2)c1 [UNC10302682A, P505-15 (PRT06207 HCl)]
[1]; Receptor H1, 10 μM
  Inhibition 1: 100.99%
  Inhibition 2: 95.9%
  Inhibition 3: 86.08%
  Inhibition 4: 60.28%
[1]; Receptor H1, 10 μM, mean of Inhibition 1-4
  Mean %: 85.81%
[2]; Receptor M3, 10 μM
  Inhibition 1: 28.46%
  Inhibition 2: 2.32%
  Inhibition 3: 15.74%
  Inhibition 4: 10.41%
[2]; Receptor M3, 10 μM, mean of Inhibition 1-4
  Mean %: 14.23%
[3]; Receptor 5-HT1B, 10 μM
  Inhibition 1: 53.66%
  Inhibition 2: 22.41%
  Inhibition 3: 27.71%
  Inhibition 4: 32.24%
[3]; Receptor 5-HT1B, 10 μM, mean of Inhibition 1-4
  Mean %: 34.01%
[4]; Receptor DAT, 10 μM
  Inhibition 1: 65.15%
  Inhibition 2: 70.33%
  Inhibition 3: 66.98%
  Inhibition 4: 72.6%
[4]; Receptor DAT, 10 μM, mean of Inhibition 1-4
  Mean %: 68.77%
[5]; Receptor M1, 10 μM
  Inhibition 1: 35.84%
  Inhibition 2: 24.74%
  Inhibition 3: 0.85%
  Inhibition 4: 16.46%
[5]; Receptor M1, 10 μM, mean of Inhibition 1-4
  Mean %: 19.47%
[6]; Receptor 5-HT3, 10 μM
  Inhibition 1: 66.83%
  Inhibition 2: 77.09%
  Inhibition 3: 73.28%
  Inhibition 4: 75.45%
[6]; Receptor 5-HT3, 10 μM, mean of Inhibition 1-4
  Mean %: 73.16%
[7]; Receptor 5-HT7A, 10 μM
  Inhibition 1: 33.86%
  Inhibition 2: 20.22%
  Inhibition 3: 54.31%
  Inhibition 4: 52.91%
[7]; Receptor 5-HT7A, 10 μM, mean of Inhibition 1-4
  Mean %: 40.33%
[8]; Receptor 5-HT1A, 10 μM
  Inhibition 1: 35.42%
  Inhibition 2: 0.09%
  Inhibition 3: 1.29%
  Inhibition 4: 21.46%
[8]; Receptor 5-HT1A, 10 μM, mean of Inhibition 1-4
  Mean %: 14.57%
[9]; Receptor H2, 10 μM
  Inhibition 1: 59.21%
  Inhibition 2: 38.77%
  Inhibition 3: 21.91%
  Inhibition 4: -3.64%
[9]; Receptor H2, 10 μM, mean of Inhibition 1-4
  Mean %: 29.06%

## CC(=O)N1CCC(NC(=O)NC23CC4CC(CC(C4)C2)C3)CC1 [UNC10302683A, AR9281]
[1]; H1, mean inhibition
  Mean %: 76.51%
[1]; H1, replicate 1
  Inhibition 1: 98.85%
[1]; H1, replicate 2
  Inhibition 2: 86%
[1]; H1, replicate 3
  Inhibition 3: 68.77%
[1]; H1, replicate 4
  Inhibition 4: 52.43%
[2]; M3, mean inhibition
  Mean %: -3.62%
[2]; M3, replicate 1
  Inhibition 1: -3%
[2]; M3, replicate 2
  Inhibition 2: -3.76%
[2]; M3, replicate 3
  Inhibition 3: 2.67%
[2]; M3, replicate 4
  Inhibition 4: -10.4%
[3]; 5-HT1B, mean inhibition
  Mean %: -0.64%
[3]; 5-HT1B, replicate 1
  Inhibition 1: 23.19%
[3]; 5-HT1B, replicate 2
  Inhibition 2: -3.93%
[3]; 5-HT1B, replicate 3
  Inhibition 3: -10.42%
[3]; 5-HT1B, replicate 4
  Inhibition 4: -11.4%
[4]; DAT, mean inhibition
  Mean %: 71.25%
[4]; DAT, replicate 1
  Inhibition 1: 78.11%
[4]; DAT, replicate 2
  Inhibition 2: 65.9%
[4]; DAT, replicate 3
  Inhibition 3: 74.33%
[4]; DAT, replicate 4
  Inhibition 4: 66.66%
[5]; M1, mean inhibition
  Mean %: 7.62%
[5]; M1, replicate 1
  Inhibition 1: 23.24%
[5]; M1, replicate 2
  Inhibition 2: 6.49%
[5]; M1, replicate 3
  Inhibition 3: -4.8%
[5]; M1, replicate 4
  Inhibition 4: 5.55%
[6]; 5-HT3, mean inhibition
  Mean %: 13.87%
[6]; 5-HT3, replicate 1
  Inhibition 1: 9.48%
[6]; 5-HT3, replicate 2
  Inhibition 2: 13.6%
[6]; 5-HT3, replicate 3
  Inhibition 3: -1.71%
[6]; 5-HT3, replicate 4
  Inhibition 4: 34.11%
[7]; 5-HT7A, mean inhibition
  Mean %: 20.3%
[7]; 5-HT7A, replicate 1
  Inhibition 1: 4.73%
[7]; 5-HT7A, replicate 2
  Inhibition 2: 29.98%
[7]; 5-HT7A, replicate 3
  Inhibition 3: 12.78%
[7]; 5-HT7A, replicate 4
  Inhibition 4: 33.7%
[8]; 5-HT1A, mean inhibition
  Mean %: -6.08%
[8]; 5-HT1A, replicate 1
  Inhibition 1: 5.09%
[8]; 5-HT1A, replicate 2
  Inhibition 2: -13.88%
[8]; 5-HT1A, replicate 3
  Inhibition 3: -5.6%
[8]; 5-HT1A, replicate 4
  Inhibition 4: -9.91%
[9]; H2, mean inhibition
  Mean %: -19%
[9]; H2, replicate 1
  Inhibition 1: 4.92%
[9]; H2, replicate 2
  Inhibition 2: -11.17%
[9]; H2, replicate 3
  Inhibition 3: -32.29%
[9]; H2, replicate 4
  Inhibition 4: -37.45%

## MDL 28170 [UNC10302675A]
[1]; H1, mean inhibition
  Mean %: 62.36%
[1]; H1, replicate 1
  Inhibition 1: 85.46%
[1]; H1, replicate 2
  Inhibition 2: 73.14%
[1]; H1, replicate 3
  Inhibition 3: 49.84%
[1]; H1, replicate 4
  Inhibition 4: 41%
[2]; M3, mean inhibition
  Mean %: 3.62%
[2]; M3, replicate 1
  Inhibition 1: 10.69%
[2]; M3, replicate 2
  Inhibition 2: 6.89%
[2]; M3, replicate 3
  Inhibition 3: 8.89%
[2]; M3, replicate 4
  Inhibition 4: -11.99%
[3]; 5-HT1B, mean inhibition
  Mean %: 7.62%
[3]; 5-HT1B, replicate 1
  Inhibition 1: 14.84%
[3]; 5-HT1B, replicate 2
  Inhibition 2: 5.24%
[3]; 5-HT1B, replicate 3
  Inhibition 3: 9.43%
[3]; 5-HT1B, replicate 4
  Inhibition 4: 0.96%
[4]; DAT, mean inhibition
  Mean %: 35.54%
[4]; DAT, replicate 1
  Inhibition 1: 41.81%
[4]; DAT, replicate 2
  Inhibition 2: 27.44%
[4]; DAT, replicate 3
  Inhibition 3: 32.41%
[4]; DAT, replicate 4
  Inhibition 4: 40.51%
[5]; M1, mean inhibition
  Mean %: -11.2%
[5]; M1, replicate 1
  Inhibition 1: -2.73%
[5]; M1, replicate 2
  Inhibition 2: -6.87%
[5]; M1, replicate 3
  Inhibition 3: -20.6%
[5]; M1, replicate 4
  Inhibition 4: -14.58%
[6]; 5-HT3, mean inhibition
  Mean %: -2.62%
[6]; 5-HT3, replicate 1
  Inhibition 1: -0.93%
[6]; 5-HT3, replicate 2
  Inhibition 2: 2.95%
[6]; 5-HT3, replicate 3
  Inhibition 3: -29.22%
[6]; 5-HT3, replicate 4
  Inhibition 4: 16.71%
[7]; 5-HT7A, mean inhibition
  Mean %: 12.48%
[7]; 5-HT7A, replicate 1
  Inhibition 1: 4.73%
[7]; 5-HT7A, replicate 2
  Inhibition 2: 10.46%
[7]; 5-HT7A, replicate 3
  Inhibition 3: 19.29%
[7]; 5-HT7A, replicate 4
  Inhibition 4: 15.42%
[8]; 5-HT1A, mean inhibition
  Mean %: 2.42%
[8]; 5-HT1A, replicate 1
  Inhibition 1: 14.05%
[8]; 5-HT1A, replicate 2
  Inhibition 2: 0.78%
[8]; 5-HT1A, replicate 3
  Inhibition 3: -1.81%
[8]; 5-HT1A, replicate 4
  Inhibition 4: -3.36%
[9]; H2, mean inhibition
  Mean %: -17.24%
[9]; H2, replicate 1
  Inhibition 1: -6.35%
[9]; H2, replicate 2
  Inhibition 2: -24.37%
[9]; H2, replicate 3
  Inhibition 3: -15.47%
[9]; H2, replicate 4
  Inhibition 4: -22.78%
